Source: PubChem BioAssay AID623893 (Vanderbilt Specialized Chemistry Center, 2012)
The source made the active and inactive calls.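 Rule for the calls: active = fold change in agonist EC50 with compound of 2 or more, a potentiator, or 0.5 or less, a blocker; inactive = fold change strictly between 0.5 and 2.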

Biological target: Metabotropic glutamate receptor 7 (Rattus norvegicus) (UniProt P35400)
Experiment: mGlu7 L-AP4 response modulation check – cell-based, rat, thallium flux, L-AP4 agonist, selectivity assay for mGlu4 lead optimization, profiling panel (AID 623893)
Conditions: mGlu7 cells, at 10 µM

Chain of Metabotropic glutamate receptor 7 (Rattus norvegicus) (P35400 whole entry, looked up): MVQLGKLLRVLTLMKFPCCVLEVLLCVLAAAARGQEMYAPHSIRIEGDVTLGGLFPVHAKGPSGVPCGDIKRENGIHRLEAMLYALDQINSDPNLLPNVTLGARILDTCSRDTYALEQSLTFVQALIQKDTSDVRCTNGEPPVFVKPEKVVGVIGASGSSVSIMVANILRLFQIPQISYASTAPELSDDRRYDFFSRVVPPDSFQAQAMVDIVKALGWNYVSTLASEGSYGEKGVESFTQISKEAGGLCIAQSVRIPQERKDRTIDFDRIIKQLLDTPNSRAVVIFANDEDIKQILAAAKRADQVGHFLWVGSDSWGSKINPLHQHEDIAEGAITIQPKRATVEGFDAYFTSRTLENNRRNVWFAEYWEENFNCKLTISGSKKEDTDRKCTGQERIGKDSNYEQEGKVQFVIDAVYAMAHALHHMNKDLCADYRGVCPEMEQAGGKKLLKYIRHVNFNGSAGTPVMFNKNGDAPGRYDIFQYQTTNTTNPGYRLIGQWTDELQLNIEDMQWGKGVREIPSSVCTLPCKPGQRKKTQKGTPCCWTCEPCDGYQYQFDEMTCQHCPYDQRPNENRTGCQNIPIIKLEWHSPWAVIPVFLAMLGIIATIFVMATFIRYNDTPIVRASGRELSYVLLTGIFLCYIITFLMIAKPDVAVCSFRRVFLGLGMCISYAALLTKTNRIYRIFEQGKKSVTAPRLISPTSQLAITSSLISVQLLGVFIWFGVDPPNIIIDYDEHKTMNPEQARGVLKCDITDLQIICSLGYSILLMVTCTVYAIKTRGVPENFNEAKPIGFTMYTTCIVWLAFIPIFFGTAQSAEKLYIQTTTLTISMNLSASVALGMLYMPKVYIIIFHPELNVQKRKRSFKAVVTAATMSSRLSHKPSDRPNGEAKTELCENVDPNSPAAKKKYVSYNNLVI

fold shift: 1.44 (inactive)
Structure (SMILES): O=C(Nc1cccc(Cl)c1)c1ccccn1
